Data taken from US20110230501A1, “PHARMACEUTICAL COMPOSITIONS FOR THE TREATMENT OF DIABETES MELLITUS” (IPCA Laboratories Ltd., priority 2008, published 2011).
Marks after values point to notes of the source that are not given here.

Key:
[1] = test system: alloxan induced diabetic rats; assay: Alloxan induced diabetic rats: hydroxychloroquine with glimepiride; assay type: in vivo, Wistar rats; settings: nine days, HCQ 160 or GLM 8 mg/kg/day p.o.
Experimental: (§1) Thirty Wistar rats weighing 150-200 g of either sex were divided into six groups consisting of five rats each. Experimental diabetes was induced in rats by injecting alloxan monohydrate intraperitonially at a dose of 90 mg/kg body weight. Rats with blood sugar level of 250-350 mg/dl, were considered as diabetic and employed in the study. Group 1 (normal control) consisted of normal rats that neither received alloxan monohydrate nor any drug. Group 2′ served as diabetic control which received vehicle orally. […] The study drugs were administered for nine days.

[2] = test system: adults with rheumatoid arthritis; settings: cited from earlier work
[3] = cited from earlier work
[4] = cited from earlier work; remark: listed apart in the source
[5] = test system: sulphonylurea-refractory patients with poorly controlled Type 2 diabetes; settings: cited from earlier work
[6] = test system: alloxan induced diabetic rats; assay: Alloxan induced diabetic rats: hydroxychloroquine with pioglitazone; assay type: in vivo, Wistar rats; settings: nine days, HCQ 160 or PIO 10 mg/kg/day p.o.
Experimental: as §1, with “2” for “2′”

[7] = test system: alloxan induced diabetic rats; assay: Alloxan induced diabetic rats: hydroxychloroquine with metformin; assay type: in vivo, Wistar rats; settings: nine days, HCQ 160 or MET 500 mg/kg/day p.o.
Experimental: as §1, with “2” for “2′”

[8] = patients treated with hydroxychloroquine

Row | Structure (SMILES) | Blood Glucose (mg/dl) Final [1] [mg/dL] | Body Weight (g) Final [1] [g] | Alb. (Albumin) [1] | Blood Glucose (% mean change) [1] | Body Weight (% mean change) [1] | HDL (High Density Lipoprotein) [1] | Hb (Hemoglobin) [1] | TC (Total Cholesterol) [1] | TG (Triglyceride) [1] | Urea [1] | Blood Glucose (mg/dl) Final [6] [mg/dL] | Body Weight (g) Final [6] [g] | Alb. (Albumin) [6] | Blood Glucose (% mean change) [6] | Body Weight (% mean change) [6] | HDL (High Density Lipoprotein) [6] | Hb (Hemoglobin) [6] | TC (Total Cholesterol) [6] | TG (Triglyceride) [6] | Urea [6] | other results
1 | CCC1=C(C)CN(C(=O)NCCc2ccc(S(=O)(=O)NC(=O)N[C@H]3CC[C@H](C)CC3)cc2)C1=O [GLM, glimepiride] | 157.2 ± 17.64 | 170 ± 11.22 | 3.99 ± 0.24^a g/dl | (−46.83)^d % | (−3.40)^c % | 33 ± 1.58^b mg/dl | 14.04 ± 1.90^b g/dl | 169.40 ± 7.05^b mg/dl | 113.40 ± 3.64^b mg/dl | 30.26 ± 0.86^b mg/dl | – | – | – | – | – | – | – | – | – | – | Protein (T) (Total Protein) [1]: 5.78 ± 1.22^b g/dl
2 | CCN(CCO)CCCC(C)Nc1ccnc2cc(Cl)ccc12 (centres unmarked) [HCQ, hydroxychloroquine] | 263.80 ± 2.04 | 151.60 ± 13.16 | 4.03 ± 0.13^a g/dl | (−10.81)^c % | (−10.51)^b % | 35.80 ± 2.28^b mg/dl | 12.12 ± 1.27^a g/dl | 178.40 ± 2.70^c mg/dl | 117.20 ± 2.28^b mg/dl | 29.70 ± 1.37^b mg/dl | 263.80 ± 2.04 | 151.60 ± 13.16 | 4.03 ± 0.13^a g/dl | (−10.81)^c % | (−10.51)^b % | 35.80 ± 2.28^b mg/dl | 12.12 ± 1.27^a g/dl | 178.40 ± 2.70^c mg/dl | 117.20 ± 2.28^b mg/dl | 29.70 ± 1.37^b mg/dl | risk of diabetes [2]: reduced risk of diabetes; serum levels of cholesterol, triglycerides, and LDL ([3]; irrespective of concomitant steroid administration): high statistical association with low serum levels; HDL and % HDL [3, 8]: rise; decrease in serum levels of cholesterol [3, 8]: approximately 10%; red blood cell aggregation ([4]; humans, without prolonging the bleeding time): reduction; plasma viscosity as well as whole blood viscosity ([4]; postoperative patients): significant reduction; glycemic control [5]: improved glycemic control; Blood Glucose (% mean change) ([6]; listed as hydroxychloroquine): −10.81%; Blood Glucose (mg/dl) Final [7]: 263.80 ± 2.04 mg/dL; Body Weight (g) Final [7]: 151.60 ± 13.16 g; Alb. (Albumin) [7]: 4.03 ± 0.13^a g/dl; Blood Glucose (% mean change) [7]: (−10.81)^c %; Body Weight (% mean change) [7]: (−10.51)^b %; HDL (High Density Lipoprotein) [7]: 35.80 ± 2.28^b mg/dl; Hb (Hemoglobin) [7]: 12.12 ± 1.27^a g/dl; TC (Total Cholesterol) [7]: 178.40 ± 2.70^c mg/dl; TG (Triglyceride) [7]: 117.20 ± 2.28^b mg/dl; Urea [7]: 29.70 ± 1.37^b mg/dl; Blood Glucose (% mean change) ([7]; listed as hydroxychloroquine): −10.81%; Blood Glucose (% mean change) ([1]; listed as hydroxychloroquine): −10.81%
3 | CN(C)C(=N)N=C(N)N [MET, metformin] | – | – | – | – | – | – | – | – | – | – | – | – | – | – | – | – | – | – | – | – | Blood Glucose (mg/dl) Final [7]: 148.8 ± 17.35 mg/dL; Body Weight (g) Final [7]: 173.8 ± 7.19 g; Alb. (Albumin) [7]: 4.52 ± 1.12^a g/dl; Blood Glucose (% mean change) [7]: (−47.58)^d %; Body Weight (% mean change) [7]: (−10.51) c %; HDL (High Density Lipoprotein) [7]: 34.40 ± 2.51^b mg/dl; Hb (Hemoglobin) [7]: 12.80 ± 1.25^b g/dl; Protein (T) (Total Protein) [7]: 6.75 ± 0.80^b g/dl; TC (Total Cholesterol) [7]: 170.40 ± 5.90^b mg/dl; TG (Triglyceride) [7]: 111.20 ± 5.93^b mg/dl; Urea [7]: 31.49 ± 1.81^b mg/dl; Blood Glucose (% mean change) ([7]; listed as Metformin): 47.58%
4 | CCc1ccc(CCOc2ccc(CC3SC(=O)NC3=O)cc2)nc1 (centres unmarked) [PIO, pioglitazone] | – | – | – | – | – | – | – | – | – | – | 175.8 ± 5.48 | 159.20 ± 11.21 | 4.03 ± 0.14^a g/dl | (−41.92)^a % | (−6.07)^a % | 35.8 ± 2.28^b mg/dl | 12.12 ± 1.27^b g/dl | 178.4 ± 2.70^b mg/dl | 117.2 ± 2.28^b mg/dl | 29.69 ± 1.37^b mg/dl | Protein (T) (Total Protein) [6]: 6.06 ± 1.43^b g/dl
